Measurements from patent publication US9980943B2, “Methods of treating muscular dystrophy” (BOARD OF REGENTS OF THE NEVADA SYSTEM OF HIGHER EDUCATION, …, priority 2013, dated 2018).

Key:
Format in all cases: cell-based, mouse
[1] = system: β-galactosidase in CMV-LacZ C2C12 myotubes; assay: CMV-LacZ secondary screen in C2C12 myotubes (β-Gal stabilizing assay); details: C2C12 CMV-LacZ myotubes, fold relative to DMSO
Summary of the method: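 Dose-response runs at 0.5–40 μM (0.5, 1, 5, 10, 20, 40 μM; N=2 per point) used a clonal C2C12 line carrying CMV-LacZ. Cells were assayed as myoblasts or as differentiated myotubes, and β-galactosidase levels were read with the FDG fluorogenic substrate.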

[2] = system: α7 integrin (LacZ reporter in α7βgal+/− myoblasts); assay: Myoblast α7+/LacZ integrin FDG assay (Burkin assay in myoblasts, 96-well); details: α7+/LacZ myoblasts, 96-well
[3] = system: α7 integrin (LacZ reporter in α7+/LacZ myotubes); assay: Myotube α7 integrin FDG assay (Burkin assay in myotubes, 96-well); details: myotubes
[4] = system: β-galactosidase in CMV-LacZ C2C12 myoblasts; assay: CMV-LacZ secondary screen in C2C12 myoblasts (β-Gal stabilizing assay); details: CMV-LacZ C2C12 myoblasts
Summary of the method: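 C2C12 myoblasts stably carrying a linearized CMV-driven LacZ construct, clone chosen by β-gal level in the myoblast FDG assay. Compounds tested in 96-well dose-response at 0.5, 1, 5, 10, 20 and 40 μM, N=2 replicates per point, to detect β-gal stabilization.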

| SMILES | CMV-LACZ in Myotubes, signal relative to DMSO ([1]; 0.5 uM) | CMV-LACZ in Myotubes, signal relative to DMSO ([1]; 1 uM) | CMV-LACZ in Myotubes, signal relative to DMSO ([1]; 5 uM) | CMV-LACZ in Myotubes, signal relative to DMSO ([1]; 10 uM) | CMV-LACZ in Myotubes, signal relative to DMSO ([1]; 20 uM) | CMV-LACZ in Myotubes, signal relative to DMSO ([1]; 40 uM) | Burkin Assay in Myoblasts, signal relative to DMSO ([2]; 0.5 uM) | Burkin Assay in Myoblasts, signal relative to DMSO ([2]; 1 uM) | Burkin Assay in Myoblasts, signal relative to DMSO ([2]; 5 uM) | Burkin Assay in Myoblasts, signal relative to DMSO ([2]; 10 uM) | Burkin Assay in Myoblasts, signal relative to DMSO ([2]; 20 uM) | Burkin Assay in Myoblasts, signal relative to DMSO ([2]; 40 uM) | Burkin Assay in Myotubes, α7 integrin LacZ reporter signal relative to DMSO ([3]; 0.5 uM) | Burkin Assay in Myotubes, α7 integrin LacZ reporter signal relative to DMSO ([3]; 1 uM) | Burkin Assay in Myotubes, α7 integrin LacZ reporter signal relative to DMSO ([3]; 5 uM) | Burkin Assay in Myotubes, α7 integrin LacZ reporter signal relative to DMSO ([3]; 10 uM) | Burkin Assay in Myotubes, α7 integrin LacZ reporter signal relative to DMSO ([3]; 20 uM) | Burkin Assay in Myotubes, α7 integrin LacZ reporter signal relative to DMSO ([3]; 40 uM) | CMV-LACZ in Myoblasts (β-galactosidase activity relative to DMSO) ([4]; 0.5 uM) | CMV-LACZ in Myoblasts (β-galactosidase activity relative to DMSO) ([4]; 1 uM) | other results |
| --- | --- | --- | --- | --- | --- | --- | --- | --- | --- | --- | --- | --- | --- | --- | --- | --- | --- | --- | --- | --- | --- |
| CC(C)(C)c1csc(NC(=O)c2cccnc2)n1 [MLS001164432-01] | 0.9248 | 1.3543 | 0.9500 | 1.2418 | 1.1358 | 1.1179 | 1.248 | 1.1813 | 1.091 | 1.067 | 0.7137 | 0.6622 | 0.8982 | 0.9509 | 0.9878 | 0.9985 | 0.7121 | 0.8464 | 0.9600 | 0.7842 | CMV-LACZ in Myoblasts (β-galactosidase activity relative to DMSO) ([4]; 5 uM): 1.1387; CMV-LACZ in Myoblasts (β-galactosidase activity relative to DMSO) ([4]; 10 uM): 1.3183; CMV-LACZ in Myoblasts (β-galactosidase activity relative to DMSO) ([4]; 20 uM): 1.1059; CMV-LACZ in Myoblasts (β-galactosidase activity relative to DMSO) ([4]; 40 uM): 1.1289 |
| O=C(O)C(Cc1ccc(O)cc1)N1C(=O)c2ccccc2C1=O (stereo not drawn) [MLS001165394-01] | 0.9232 | 1.1558 | 0.9589 | 0.9045 | 1.0344 | 0.9544 | 1.149 | 1.201 | 1.159 | 0.951 | 1.035 | 1.007 | 1.068 | 1.135 | 1.239 | 0.9854 | 1.188 | 1.034 | 1.0655 | 1.0015 | CMV-LACZ in Myoblasts (β-galactosidase activity relative to DMSO) ([4]; 5 uM): 1.0941; CMV-LACZ in Myoblasts (β-galactosidase activity relative to DMSO) ([4]; 10 uM): 0.9792; CMV-LACZ in Myoblasts (β-galactosidase activity relative to DMSO) ([4]; 20 uM): 0.8663; CMV-LACZ in Myoblasts (β-galactosidase activity relative to DMSO) ([4]; 40 uM): 0.9570 |
| CCCCN1CC(=O)N2Cc3[nH]c4ccccc4c3C[C@H]2C1=O [MLS001165424-01] | 0.9152 | 1.1248 | 1.0571 | 1.1758 | 1.0316 | 0.8558 | 1.152 | 1.2222 | 0.9966 | 0.9548 | 1.176 | 1.23 | 0.8771 | 0.8568 | 0.8938 | 0.8315 | 0.7791 | 0.7641 | 1.1754 | 0.9796 | CMV-LACZ in Myoblasts (β-galactosidase activity relative to DMSO) ([4]; 5 uM): 1.0607; CMV-LACZ in Myoblasts (β-galactosidase activity relative to DMSO) ([4]; 10 uM): 1.0078; CMV-LACZ in Myoblasts (β-galactosidase activity relative to DMSO) ([4]; 20 uM): 1.2730; CMV-LACZ in Myoblasts (β-galactosidase activity relative to DMSO) ([4]; 40 uM): 1.2074 |
